# In patent publication US12102672B2, “Immunogenic sequences from a phage tail length tape measure protein, bacteria expressing the same and their use in treating a cancer” (INSTITUT GUSTAVE ROUSSY, priority 2017, dated 2024):
# Key:
# [1] = test system: autologous CD4+ T cells or CD8+ T cells; experiment: Blood T cell responses of breast cancer patients to monocytes stimulated with bacteria (IFN-γ, IL-10 release); assay type: cell-based, human
# Method: FIG. 22. T cell responses against commensals in blood from breast cancer patients at diagnosis priori to chemotherapy. Autologous monocytes harvested from breast cancer patients were stimulated with distinct bacterial spp. and then incubated with autologous CD4+ T cells or CD8+ T cells to monitor IFN-γ and IL-10 release. (A) TH1/Tc1/Tr1 immune responses to E. hirae 13144. […] (B) TH1/Tc1/Tr1 immune responses to E. coli or TCR cross-linking. BC women display memory T cell responses against E. coli and respond to TCR cross-linking.
# ileal bacterial colonies = experiment: Culturomics and TMP PCR of ileal content after gavage with E. hirae 13144 and CTX; assay type: in vivo, C57BL/6 mice; conditions: 76 colonies, oral gavage + systemic CTX
# Description: (§1) . […] Also refer to FIG. 39.
# PCR amplification of the TMP sequence (refer to FIG. 36) in each colony growing after seeding of ileal content in aerobic conditions to isolate Gram+ bacteria. A photograph of each agarose electrophoresis gel is shown for each animal. A depicts the results in 5 naive mice and B depicts the findings after CTX+oral gavage with the phage encoding bacterium. Each vertical lane corresponds to one bacterium identified in MALDI-TOF. Initials are detailed in the lower part of panel A. The positive control (Ctl+) represents the DNA of E. hirae 13144.
# We cultivated the stools (of patients) or ileal material (mice) after several dilutions in aerobic conditions and permissive medium to allow isolation of enterococci colonies (according to a procedure described in (Samb-Ba et al., 2014)). We performed a PCR of the TMP sequence in each single cultivable Enterococcus colony. One colony was put in 100 μl of nuclease-free water to release the bacterial DNA and PCR was performed with 5 μl of DNA, 12.5 μl of PCR master mix (Thermoscientific), 5 μl of nuclease-free water and 1.25 μl of each TMP primers (20 µM). […] The sequence of primers are: forward 5′-[…]-3′ ID No: reverse 5′-(SEQ 191) and […]-3′ (SEQ ID No: 192) (amplicon 1026 bp). […]
# E. gallinarum = experiment: Phage transmission from E. hirae to E. gallinarum in small intestine enteroids; set-up: species or system Enterococcus gallinarum; conditions: 1:1 ratio E. hirae / E. gallinarum on enteroids
# Description: as §1
# Temperate bacteriophages are bacterial viruses that transfer virulence, antimicrobial resistance genes, and immunogenic sequences to new bacterial hosts (Weinbauer, 2004). The TMP protein, which contains a variable number of tandem repeats with highly conserved tryptophan and phenylalanine residues at fixed positions is encoded by the genome of Siphoviridae phages (Belcaid et al., 2011; Piuri and Hatfull, 2006). To analyze the capacity of E. hirae 13144 to contagiously disseminate the phage TMP sequence, we performed culturomic analyses of the ileal content from C57BL/6 mice subjected to oral gavage with E. hirae 13144 and systemic CTX therapy (FIG. 30C). […] Of note, none of the 90 colonies (mostly of E. gallinarum) isolated from naive mice harbored the TMP sequence (FIG. 39). Moreover, CTX plays a role in eliminating the E. gallinarum, allowing the niching and/or colonization of E. hirae in the small intestine, as shown in vitro in enteroid systems or in PCR of the ileal content (FIG. 30G and not shown). Importantly, incubation of small intestine enteroids with a balanced 1:1 ratio of E. hirae or E. gallinarum harbouring or not the phage respectively, lead to the transmission of the infectious/lytic phage to E. gallinarum by E. hirae in 9% of colonies at 6 hrs and 26% at 20 hrs (FIG. 30G).
# pTh17 cells = experiment: Induction of pTh17 cells in secondary lymphoid organs of CTX-treated animals; assay type: in vivo
# Description: The reasons for these differences were however unknown, and the inventors pursued their research to identify the factor(s) responsible for the immunogenic properties of the murine strain EH13144 and the human clones IGR4, IGR7 and IGR11, in order to derive new molecules or microorganisms useful in the treatment of cancer.
substance,measurement,setting,value
Enterococcus hirae strain 13144 [Peptide 13144],BC patients who developed IL-10 producing memory CD4+ T cell responses,[1]; FIG. 22A,52%
same,BC patients with CD4+ T cells exhibiting no reactivity to pulsed monocytes,[1]; FIG. 22A,32%
same,BC patients at diagnosis exhibiting a blood TH1/Tc1 immune response,[1]; prior to chemotherapy,Less than 20%
same,in vivo transduction of by-stander Enterococci by the phage,ileal bacterial colonies,E. gallinarum was the only by-stander Enterococci transduced
same,colonies of E. gallinarum with transmitted phage,E. gallinarum; 6 hrs,9%
same,colonies of E. gallinarum with transmitted phage,E. gallinarum; 20 hrs,26%
same,capacity to induce pTh17 cells in secondary lymphoid organs,pTh17 cells,significant capacity to induce pTh17 cells
